In patent US7662644B2, “Labeled peptides, proteins and antibodies and processes and intermediates useful for their preparation” (priority 2000, dated 2010):

Tests used:
[1] = biological target: T1, Rac (Homo sapiens, UniProt P63000); conditions: literature value; read-out: previously reported GTPγS dissociation constant; cited from earlier work
T1 construct: ECFP or EYFP (fusion partner)

[2] = biological target: T2, GFP-Rac1 (Homo sapiens, UniProt P63000); experiment: In vitro FRET titration of Alexa-PBD with GFP-Rac1; type: binding; conditions: at saturating Alexa-PBD; read-out: apparent GTPγS dissociation constant
T2 construct: 6His; made in house; host or cells: E. coli BL21DE3 (stated for PBD; 'similar procedure' for GFP-Rac1)
Protocol: FRET between Alexa-PBD and GFP-Rac1 was efficient and dependent on GTP-Rac 1 binding. […] Purified GFP-Rac1 (200 nM) was bound to varying concentrations of […] or GDP at low magnesium by 30 min incubation at 30° C. as described previously (U. G. Knaus et al., J. Biol. Chem. 267, 23575-23582 (1992)), using the following nucleotide equilibration buffer: 50 mM Tris HCl (pH 7.6), 50 mM NaCl, 5 mM MgCl2, 10 mM EDTA, and 1 mM DTT. […] Spectra were corrected for dilution upon Alexa-PBD addition. Alexa-PBD concentrations were either varied as shown, or maintained at 1 micromolar when saturating Alexa-PBD was required. The spectra shown were corrected for direct excitation of the Alexa fluorophore by acquiring spectra of Alexa-PBD alone at equivalent concentrations, and subtracting these from spectra shown in FIG. 7. Kd were determined by fitting to the equation: Y=A*X/(Kd+X). In the FIG. 7, panel A inset, only points actually used in the curve fitting are shown. Higher, saturating concentrations of AlexaPBD were not used because errors from subtraction of direct Alexa excitation became larger. […] The apparent GTPγS dissociation constant was determined at saturating Alexa-PBD by fitting the experimental data to the Michaelis equation (FIG. 7b). […]

[3] = Spectral data for selected merocyanine dyes (absorbance and fluorescence spectra); type: physicochemical; parameters: Absorption Maximum / Emission Maximum: unit not given here; conditions: in n-butanol
Protocol: Absorbance spectra were recorded on Hewlett-Packard HP8452 diode array spectrophotometer and fluorescence spectra were recorded on SPEX Fluorolog 2 spectrometer.

[4] = biological target: T3, RhoA (Homo sapiens, UniProt P61586); experiment: Fluorescence of mero-CBD in presence of RhoA-GTPγS; type: binding; conditions: RhoA-GTPγS present
T3 construct: 6His; made in house; host or cells: E. coli BL21DE3 (by 'analogous procedures')
T3 sequence (P61586 whole entry, species assumed): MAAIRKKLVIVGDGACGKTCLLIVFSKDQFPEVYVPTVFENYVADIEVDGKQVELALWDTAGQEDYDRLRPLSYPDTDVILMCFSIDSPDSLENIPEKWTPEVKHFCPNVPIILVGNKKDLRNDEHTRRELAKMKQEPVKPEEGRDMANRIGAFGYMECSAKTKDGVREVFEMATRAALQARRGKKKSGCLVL
Protocol: (§1) Analyses of the solvatochromic activation indicator—A solution of mero-CBD (300 nM) in assay buffer was mixed 1:1 (v/v) with solutions of cdc42 (concentration as indicated), pre-equilibrated with 10 mM GDP or GTPγS as described in Knaus, U. G., Heyworth, P. G., Kinsella, B. T., Cumutte, J. T., and Bokoch, G. M. (1992) J. Biol. Chem. 267, 23575-23582. Emission wavelength of 630 nm and excitation wavelength of 600 nm were used to acquire excitation and emission spectra, respectively. For nucleotide dependence, cdc42 (500 nM) was pre-incubated with varying concentrations of GTPγS (1 to 500 nM). Rac1 and RhoA GTPases were pre-equilibrated with GTPγS in the same manner.
(§2) Fluorescence increase as a measure of CBD-cdc42 interaction—The functionality and specificity of mero-CBD was characterized by measuring fluorescence in the presence of saturating amounts of cdc42-GDP or cdc42-GTPγS. […] Negligible increase (<5%) was also observed in the presence of activated Rac1. No effect on the mero-CBD fluorescence was observed when RhoA-GTPγS was present. Furthermore, even in the presence of excess of activated Rac1 and RhoA, GDP- and GTPγS-bound forms of cdc42 were easily distinguished by CBD-A4C fluorescence (data not shown).

[5] = Storage of labeled CBD aliquots; type: physicochemical; conditions: aliquots 15 to 50 μM stored at −80° C. for 6 months
Protocol: Conjugation of CBD with fluorescent dyes—Dialyzed CBD samples (100-150 μM) were gently inverted with 6 to 7-fold molar excess of the reactive dye at 25° C. for 3 to 4 hours. The reaction was stopped by addition of 10 mM dithiothreitol (DTT), and the mixture was incubated for 15 min. Unreacted dye was separated from the labeled protein using […] (Pharmacia) gel filtration column equilibrated and developed with 25 mM Na2HPO4 (pH 7.5). Purity of the eluting fractions was analyzed by running an aliquot on an SDS gel and visualizing the fluorescence. Only the fractions containing minimal amounts of free dye were used in the subsequent experiments. Dye-to-protein ratio was determined by measuring CBD concentration (ε^280=8,250 M^−1), and A4C concentration at 617 nm (ε=70,000 M^−1 in dimethylsulfoxide) or Alexa546 at 554 nm (ε=104,000 M^−1 in 50 mM potassium phosphate, pH 7.0). Concentrations of CBD were independently confirmed by Coomassie Plus assay (Pierce) calibrated with bovine serum albumin as a standard. Dye-to-protein ratios thus obtained varied between 0.8 and 1.2, 1.7 and 2.1 for the single-dye and dual-dye conjugates, respectively. Aliquots of the labeled CBD (15 to 50 μM) were stored at −80° C. […] In this example, CBD-conjugates were made with the dye shown in FIG. 11, and are referred to as mero-CBD (for merocyanines dye conjugated to CBD).

[6] = biological target: T4, cdc42 (Homo sapiens, UniProt P60953); experiment: Fluorescence of mero-CBD on binding cdc42; conditions: for increase of fluorescence on binding activated cdc42 (cdc42-GTPγS): saturating cdc42-GTPγS
T4 construct: 6His; made in house; host or cells: E. coli BL21DE3 (stated for CBD; 'analogous procedures' for cdc42)
T4 sequence (P60953 whole entry, species assumed): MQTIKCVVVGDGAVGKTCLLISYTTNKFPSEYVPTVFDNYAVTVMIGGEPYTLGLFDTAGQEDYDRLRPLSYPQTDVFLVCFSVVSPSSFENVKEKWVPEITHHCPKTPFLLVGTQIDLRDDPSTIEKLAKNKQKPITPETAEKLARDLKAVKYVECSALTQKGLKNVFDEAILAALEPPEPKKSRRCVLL
Protocol: as §1, §2

[7] = biological target: T5, Rac1 (Homo sapiens, UniProt P63000); experiment: Fluorescence of mero-CBD in presence of activated Rac1; type: binding; conditions: Rac1 pre-equilibrated with GTPγS
T5 construct: 6His; made in house; host or cells: E. coli BL21DE3 (by 'analogous procedures')
Protocol: as §1, §2

Row | Molecule | Absorption Maximum [3] | Emission Maximum [3] | Extinction coefficient (*10^−3) [3] | Quantum Yield [3] | other results
1 | Nc1nc2c(ncn2[C@@H]2O[C@H](COP(=O)(O)OP(=O)(O)OP(O)(O)=S)[C@@H](O)[C@H]2O)c(=O)[nH]1 [GTPγS] | – | – | – | – | Kd [1]: 50 nM; Kd [2]: 47 ± 9 nM
2 | CC1(C)/C(=C/C=C/C=C2/C(=O)c3ccccc3S2(=O)=O)N(CCCS(=O)(=O)[O-])c2ccccc21.[Na+] [Compound 3] | 586 | 618 | 120 | 0.17 | –
3 | CC1(C)/C(=C/C=C/C=C2/C(=O)c3ccccc3C2=C(C#N)C#N)N(CCCS(=O)(=O)[O-])c2ccccc21.[Na+] [Compound 4] | 667 | 693 | 80 | 0.10 | –
4 | mero-CBD: cdc42 binding domain of WASP conjugated to the merocyanine dye shown in FIG. 11 (conjugate, left off: small tags and cut ends) DIQNPDITSSRYRGLPAPGPSPADKKRSGKKKISKADIGAPSGFKHVSHVGWDPQNGFDVNNLDPDLRSLCSRAGISEAQLTDAETSKLIYDFIEDQGGLEAVRQEMRRQEPLPPPPPPSR | – | – | – | – | effect of RhoA-GTPγS on fluorescence [4]: No effect; loss of binding ability on storage [5]: No significant loss of binding ability; increase of fluorescence with cdc42-GDP ([6]; saturating cdc42-GDP): but not cdc42-GDP; increase of fluorescence on binding activated cdc42 (cdc42-GTPγS) [6]: Approximately 3.5 fold; increase of fluorescence on binding activated cdc42 (cdc42-GTPγS) ([6]; listed as CBD biosensor): up to 3.5 fold; increase of fluorescence in the presence of activated Rac1 [7]: < 5%
